Data published in paper PMC10066226, “An ultra-high-throughput screen for the evaluation of peptide HLA-Binder interactions” (Scientific Reports, 2023).

target: model TCER IMAHiAff#1; experiment: BLI measurements (Octet RED384) of peptide-loaded disulfide-stabilized pHLA; format: binding; conditions: not given
Text: In order to confirm our results obtained from the ultra high throughput highSCORE measurements, we compared the KD values with the corresponding ones from BLI measurements (Fig. 4). The direct correlation between the two methods can be described as a hockey stick. Many peptides with single amino acid mutations show similar KD values as the WT peptide. This is especially the case for KD values obtained from the highSCORE measurements. Within the BLI data set, most of the library peptides show a higher KD value compared to the corresponding WT peptide (Fig. 4a). This relation results in a flat region within the correlation plot. All other peptide, with the exception of the ones highlighted with an arrow, show a good linear correlation between both data sets. It is important to note that while the spectroscopic principle behind BLI and highSCORE is similar, the experimental procedure is different. Using BLI, the pHLA complexes are bound to a sensor tip, which is dipped into a microtiter plate well containing the analyte. Thereafter, the sensor tip is wiggled within the well to ensure that the analyte is not depleted on the surface. In contrast, during a highSCORE measurement, the analyte is flushed over the microarray using a thin flow chamber. This makes the experimental procedure of a highSCORE measurement more similar to that of an SPR device. Consequently, differences in the KD values between BLI and highSCORE measurements are to be expected and might explain the shift in the overall distribution of the KD values (Fig. 4b). […] Since both measurement methods have their own advantages and disadvantages, it is difficult to tell which of the two methods provides the values that are closest to reality.
BLI measurements were performed on an Octet RED384 system using anti-Penta-His biosensors. In short, disulfide-stabilized molecules were refolded and peptide-loaded as previously described. All analytes or ligands were diluted to their final concentration in kinetics buffer (PBS, 0.1% BSA, 0.05% Tween-20) if not specified otherwise. All biosensors were hydrated for at least 10 minutes in kinetics buffer before use. Loadings and measurements were performed in 384 tilted well plates (Pall Fortébio) with at least 40 μ l at a 3 mm sensor offset. Plate temperature was set at 30 ^∘ C and shaker speed at 1000 rpm. To generate a baseline, sensors were dipped in kinetics buffer for 60 s before being loaded with 10 ug/ml of peptide loaded disulfide-stabilized pHLA for 120 s. Afterwards, a second 120 s baseline was recorded before a 60 s association and a 240 s dissociation phase. After individual measurements, sensors were regenerated using 10 mM Glycine pH 1.5 4 times for 5s each before another cycle was performed. 4 TCER concentrations (500nM, 158.1nM, 50nM and 15.8nM) were measured for each pHLA complex. A sensor loaded with an irrelevant pHLA was measured in line for reference sensor subtraction. All sensorgrams were analyzed using the OctetRED software “Data Analysis HT” version 11.0.0.50 (Pall Fortébio). Raw sensor data was aligned at the Y axis by aligning the data to the end of the baseline step, and inter-step correction was used to align the start of the dissociation to the end of the association phase. Savitzky-Golay filtering was applied. Resulting sensorgrams were then fitted using a 1:1 Langmuir kinetics binding model. In case of lower affinity binding events, the lower two concentrations were excluded from the fitting.

Question: With SLLQHLDGL [D7] as the sequence, how does the BLI_KD read?
Answer: Its BLI_KD is “no fit”.

Question: SLLQHLEGL [E7] was tested. Which BLI_KD did it give?
Answer: Its BLI_KD is “no fit”.

Question: For SLLQHLIFL [F8], which BLI_KD is on record?
Answer: The BLI_KD was “no fit”.

Question: SLLQHLIWL [W8] was tested. Which BLI_KD did it give?
Answer: Its BLI_KD is “no fit”.

same assay, conditions: std in a column of its own

Question: How did the BLI_KD turn out when SLLQHLWGL [W7] was run?
Answer: The BLI_KD was “no fit”.

Question: Which BLI_KD does the source give for SLLQHPIGL [P6] here?
Answer: The BLI_KD was “no fit”.
